US20030159159A1, “Human nerve growth factor exon 1 and exon 3 promoters” (priority 1997, published 2003)

What was measured:
wild type cells = assay: G418 concentration curve on wild type cells; type: cell-based; conditions: in 13 days
Description: Since geneticin (G418) resistance would be used as a selection tool, a G418 concentration curve was done and it was determined that 600 μg/ml was the minimum concentration G418 necessary to kill all the wild type cells in 13 days.

primary glial cells = conditions: cited from earlier work
[1] = tested on: ROS 17/2.8 osteoblastic cells; conditions: cited from earlier work
mouse L929 fibroblasts = conditions: cited from earlier work
[2] = tested on: human nerve growth factor exon 3 promoter (pGL3Ex3) in UC11 cells; assay: Luciferase assay, UC11 stable cell line with pGL3Ex3 (human NGF exon 3 promoter); type: cell-based; conditions: serum deprivation 48-56 hours, 18 hr treatment: serum 10% horse serum, PMA 1 μM, calcitriol 10 nM, mean ± SEM, 1 cell line n = 11-17, read-out: Fold induction over vehicle controls without serum (luciferase), UC11 Human Exon 3
Source text: (§1) DNA for the human nerve growth factor exon 3 clones was originally identified by PCR screening a human P1 genomic library (clone 0095-B8, Genome Systems). A ˜6600 bp fragment containing exon 3 was cloned into a pBS SK+ vector to yield the plasmid identified as pBSEx3. A 4329 bp fragment was isolated from the insert in pBSEx3 and subcloned into a pGL2 enhancer vector (Promega) and a pGL3 basic vector (Promega) to yield clones identified as pGL2Ex3 and pGL3Ex3, respectively. The pGL2Ex3 was transfected into mouse L929 cells and the pGL3Ex3 vector was transfected into human UC11 cells to generate the data in Table 1.
UC11 human astrocytoma cells (Liwnicz, et. al. 1986) were grown in RPMI 1640 containing 10% fetal bovine serum, 20 mM HEPES, penicillin (50 μg/ml), streptomycin (50 μg/ml), neomycin (100 μg/ml), and glutamine (1 mM). Cells were maintained at 37° C. in 5% CO2, fed every 3-4 days and passaged once per week. […]
(§2) Cells were plated at 5,000 cells/well in 96 well dishes in serum containing media described above. […] Cells were treated with 1 μM PMA, 10 nM calcitriol or 10% horse serum and luciferase activity was determined 18 hours later using a Promega kit (catalog #E1500). […] Luciferase activity was detected in a MicroLumat LB 96 P luminometer (Wallac Inc, Gaithersburg, Md.) for 10 seconds following automatic injection of 100 μl 470 μM luciferin.

[3] = tested on: human nerve growth factor exon 1 promoter KE (pNE1KE) in UC11 cells; assay: Luciferase assay, UC11 stable cell lines with pNE1KE (human NGF exon 1 promoter KE); type: cell-based; conditions: serum deprivation 48-56 hours, 18 hr treatment: serum 10% horse serum, PMA 1 μM, calcitriol 10 nM, mean ± SEM, 6 cell lines in triplicate, read-out: Fold induction over vehicle controls without serum (luciferase), UC11 Human Exon 1 KE
Source text: (§3) DNA for the human nerve growth factor exon 1 clones was originally identified by PCR screening a human P1 genomic library (clone 1226-G9, Genome Systems). A ˜14,000 bp fragment containing exon 1 was cloned into a pBS SK+ vector to yield the plasmid identified as pBSEx1. Two overlapping fragments were isolated from the insert in pBSEx1 and subcloned into a pGL3neo vector. The largest construct containing human nerve growth factor exon 1 is 2846 bp and is identified as pNE1KS. The second subclone from pBSEx1, identified as pNE1KE, contains the same 5′ end as pNE1KS and is truncated on the 3′ end in exon 1, resulting in an insert that is 2234 bp. pNE1KS and pNE1KE were transfected into mouse L929 cells and human UC 11 cells to generate the data in Table 1. […]
as §2

[4] = tested on: human nerve growth factor exon 1 promoter KS (pNE1KS) in UC11 cells; assay: Luciferase assay, UC11 stable cell lines with pNE1KS (human NGF exon 1 promoter KS); type: cell-based; conditions: serum deprivation 48-56 hours, 18 hr treatment: serum 10% horse serum, PMA 1 μM, calcitriol 10 nM, mean ± SEM, 6 cell lines in triplicate, read-out: Fold induction over vehicle controls without serum (luciferase), UC11 Human Exon 1 KS
Source text: as §3, §2

[5] = tested on: human nerve growth factor exon 3 promoter (pGL2Ex3) in L929 cells; assay: Luciferase assay, L929 stable cell line with pGL2Ex3 (human NGF exon 3 promoter); type: cell-based; conditions: serum deprivation 48-56 hours, 18 hr treatment: serum 10% horse serum, PMA 1 μM, calcitriol 10 nM, mean ± SEM, 1 cell line n = 11-17, read-out: Fold induction over vehicle controls without serum (luciferase), L929 Mouse Exon 3
Source text: as §1
L929 mouse fibroblast cells (ATCC, Rockville, Md.) were grown in Dulbecco's modified Eagle's medium (DMEM) containing 10% horse serum, penicillin (50 μg/ml), streptomycin (50 μg/ml), neomycin (100 μg/ml), and glutamine (1 mM). Cells were maintained at 37° C. in 5% CO2, fed every 3-4 days and passaged once per week. […]
as §2

[6] = tested on: human nerve growth factor exon 1 promoter KS (pNE1KS) in L929 cells; assay: Luciferase assay, L929 stable cell lines with pNE1KS (human NGF exon 1 promoter KS); type: cell-based; conditions: serum deprivation 48-56 hours, 18 hr treatment: serum 10% horse serum, PMA 1 μM, calcitriol 10 nM, mean ± SEM, 6 cell lines in duplicate, read-out: Fold induction over vehicle controls without serum (luciferase), L929 Mouse Exon 1 KS
Source text: as §3, §2

[7] = tested on: human nerve growth factor exon 1 promoter KE (pNE1KE) in L929 cells; assay: Luciferase assay, L929 stable cell lines with pNE1KE (human NGF exon 1 promoter KE); type: cell-based; conditions: serum deprivation 48-56 hours, 18 hr treatment: serum 10% horse serum, PMA 1 μM, calcitriol 10 nM, mean ± SEM, 6 cell lines in duplicate, read-out: Fold induction over vehicle controls without serum (luciferase), L929 Mouse Exon 1 KE
Source text: as §3, §2

## CN[C@@H]1[C@@H](O)[C@@H](O[C@@H]2[C@@H](O)[C@H](O[C@H]3O[C@H]([C@@H](C)O)[C@@H](O)[C@H](O)[C@H]3N)[C@@H](N)C[C@H]2N)OC[C@]1(C)O [G418, geneticin]
Wild type cells
  minimum concentration G418 necessary to kill all the wild type cells: 600 µg/mL

## CCCCCCCCCCCCCC(=O)O[C@@H]1[C@@H](C)[C@@]2(O)[C@@H](C=C(CO)C[C@]3(O)C(=O)C(C)=C[C@@H]23)[C@@H]2C(C)(C)[C@]12OC(C)=O [PMA, phorbol 12-myristate 13-acetate]
Primary glial cells
  effect on synthesis of NGF: enhances the synthesis of NGF
[1]
  effect on NGF expression: suppresses expression
Mouse L929 fibroblasts
  effect on synthesis of NGF: enhances the synthesis of NGF

## C=C1/C(=C\C=C2/CCC[C@]3(C)[C@@H]([C@H](C)CCCC(C)(C)O)CC[C@@H]23)C[C@@H](O)C[C@@H]1O [CALCITRIOL, calcitriol]
[2]
  fold induction at 0.01 µM: 0.98
[3]
  fold induction at 0.01 µM: 1.01 ± 0.23
[4]
  fold induction at 0.01 µM: 0.86 ± 0.03
[5]
  fold induction at 0.01 µM: 0.73
[6]
  fold induction at 0.01 µM: 0.67
[7]
  fold induction at 0.01 µM: 0.71
